The subject of assay [1] is Magnaporthe grisea (Pyricularia oryzae). The experiment in a line: whole plant or invertebrate. The class given is in vivo. As to conditions: foliar, read-out: control of Magnaporthe grisea (percent disease control compared to untreated).
The subject of assay [2] is Glomerella lagenarium (Colletotrichum lagenarium). The experiment in a line: Glomerella lagenarium (Colletotrichum lagenarium) / liquid culture (anthracnose). The class given is cell-based. To be noted: Colletotrichum orbiculare, PDB potato dextrose broth, 24° C., 3-4 days after application, read-out: control of Glomerella lagenarium (inhibition of growth, photometric). The procedure:
Example B3: Glomerella lagenarium (Colletotrichum lagenarium)/Liquid Culture (Anthracnose) Conidia of the fungus from cryogenic storage are directly mixed into nutrient broth (PDB potato dextrose broth). After placing a (DMSO) solution of test compound into a microtiter plate (96-well format), the nutrient broth containing the fungal spores is added. The test plates are incubated at 24° C. and the inhibition of growth is measured photometrically 3-4 days after application. […] […]-191.

In assay [3] the test system is Mycosphaerella graminicola (Septoria tritici). The experiment in a line: Mycosphaerella graminicola (Septoria tritici) / liquid culture (Septoria blotch). To be noted: Zymoseptoria tritici, PDB potato dextrose broth, 24° C., 4-5 days after application, read-out: control of Mycosphaerella graminicola (inhibition of growth, photometric). The class given is cell-based. The procedure: Example B15: Mycosphaerella graminicola (Septoria tritici)/Liquid Culture (Septoria Blotch) Conidia of the fungus from cryogenic storage are directly mixed into nutrient broth (PDB potato dextrose broth). After placing a (DMSO) solution of test compound into a microtiter plate (96-well format), the nutrient broth containing the fungal spores is added. The test plates are incubated at 24° C. and the inhibition of growth is determined photometrically 4-5 days after application. […] […]-191.

Assay [4] has as its system Monographella nivalis (Microdochium nivale). As to the kind of experiment: Monographella nivalis (Microdochium nivale) / liquid culture (foot rot cereals). In kind it is cell-based. To be noted: PDB potato dextrose broth, 24° C., 4-5 days after application, read-out: control of Monographella nivalis (inhibition of growth, photometric). The procedure:
Example B7: Monographella nivalis (Microdochium nivale)/Liquid Culture (Foot Rot Cereals) Conidia of the fungus from cryogenic storage are directly mixed into nutrient broth (PDB potato dextrose broth). After placing a (DMSO) solution of test compound into a microtiter plate (96-well format), the nutrient broth containing the fungal spores is added. The test plates are incubated at 24° C. and the inhibition of growth is determined photometrically 4-5 days after application. […] […]-190.

In assay [5] the test system is Blumeria graminis f. sp. tritici (Erysiphe graminis f. sp. tritici). The experiment in a line: Blumeria graminis f. sp. tritici / wheat / leaf disc preventative (powdery mildew on wheat). To be noted: foliar, wheat leaf segments cv. Kanzler, inoculated 1 day after application, assessed 6-8 days after application, read-out: control of Blumeria graminis f. sp. tritici (percent disease control compared to untreated). The class given is in vivo. The source says:
Example B4: Blumeria graminis f. sp. tritici (Erysiphe graminis f. sp. tritici)/Wheat/Leaf Disc Preventative (Powdery Mildew on Wheat) Wheat leaf segments cv. Kanzler are placed on agar in a multiwell plate (24-well format) and sprayed with the formulated test compound diluted in water. The leaf disks are inoculated by shaking powdery mildew infected plants above the test plates 1 day after application. […] […]-192.

Data on 25 compounds can be found in patent US12458021B2, “Microbiocidal derivatives” (SYNGENTA CROP PROTECTION AG, priority 2019, dated 2025).

One may read the inhibition as the percentage by which the read-out fell short of the control.

Take `COc1ccc(Nc2cc(F)nc(F)c2)nc1C(=O)NC1(Cc2ccc(Cl)cc2)CC1` [Compound P-90, N-[1-[(4-chlorophenyl)methyl]cyclopropyl]-6-[(2,6-difluoro-4-pyridyl)amino]-3-methoxy-pyridine-2-carboxamide]: in assay [1], the pest or weed control at 200 ppm is at least 80%. Also, in assay [2], the inhibition at 20 ppm is at least 80%.
For the compound `COc1ccc(Nc2cc(F)cc(F)c2)nc1C(=O)NCc1cnn(C)n1` [Compound P-69, 6-(3,5-difluoroanilino)-3-methoxy-N-[(2-methyltriazol-4-yl)methyl]pyridine-2-carboxamide], in assay [1], the pest or weed control at 200 ppm was at least 80%.
`COc1ccc(Nc2cc(F)nc(F)c2)nc1C(=O)NCC#CC(C)(C)C` [Compound P-35, 6-[(2,6-difluoro-4-pyridyl)amino]-N-(4,4-dimethylpent-2-ynyl)-3-methoxy-pyridine-2-carboxamide]: in assay [3], the inhibition at 20 ppm was at least 80%. The pest or weed control at 200 ppm in assay [1] is at least 80%.
With `CC(C)(C)CNC(=O)c1cccc(Nc2cc(F)cc(F)c2)n1` [Compound P-111, 6-(3,5-difluoroanilino)-N-(2,2-dimethylpropyl)pyridine-2-carboxamide], the inhibition at 20 ppm in assay [3], in assay [4] and in assay [2] was at least 80% each time. Also, the pest or weed control at 200 ppm in assay [1] was at least 80%.
On to `COc1ccc(Nc2cc(F)cc(F)c2)nc1C(=O)NC1CC2CCOC21` (stereo not drawn) [Compound P-59, 6-(3,5-difluoroanilino)-3-methoxy-N-(2-oxabicyclo[3.2.0]heptan-7-yl)pyridine-2-carboxamide], for which the inhibition at 20 ppm in assay [3] and in assay [2] was at least 80% throughout. Also, the pest or weed control at 200 ppm in assay [5] was at least 80%.
`COc1ccc(Nc2cc(F)cc(F)c2)nc1C(=O)NC1(C#N)CSC1` [Compound P-121, N-(3-cyanothietan-3-yl)-6-(3,5-difluoroanilino)-3-methoxy-pyridine-2-carboxamide]: the inhibition at 20 ppm in assay [3], in assay [4] and in assay [2] was at least 80% throughout. Further, the pest or weed control at 200 ppm in assay [5] is at least 80%.
Take `COc1ccc(Nc2cc(F)nc(F)c2)nc1C(=O)NC1C2CCOC2C1(C)C` (stereo not drawn) [Compound P-54, 6-[(2,6-difluoro-4-pyridyl)amino]-N-(7,7-dimethyl-2-oxabicyclo[3.2.0]heptan-6-yl)-3-methoxy-pyridine-2-carboxamide]: the pest or weed control at 200 ppm in assay [5] was at least 80%.
For the compound `COc1ccc(Nc2cc(F)nc(F)c2)nc1C(=O)NC1(C)CCOC1` (stereo not drawn) [Compound P-124, 6-[(2,6-difluoro-4-pyridyl)amino]-3-methoxy-N-(3-methyltetrahydrofuran-3-yl)pyridine-2-carboxamide], the pest or weed control at 200 ppm in assay [5] is at least 80%.
In the case of `COc1ccc(Nc2cc(F)nc(F)c2)nc1C(=O)NCC1(C(F)(F)F)CC1` [Compound P-49, 6-[(2,6-difluoro-4-pyridyl)amino]-3-methoxy-N-[[1-(trifluoromethyl)cyclopropyl]methyl]pyridine-2-carboxamide], the pest or weed control at 200 ppm in assay [1] was at least 80%.
Consider `COc1ccc(Nc2cc(F)nc(F)c2)nc1C(=O)NC1(c2ccc(F)cc2)CC1` [Compound P-89, 6-[(2,6-difluoro-4-pyridyl)amino]-N-[1-(4-fluorophenyl)cyclopropyl]-3-methoxy-pyridine-2-carboxamide], for which the pest or weed control at 200 ppm in assay [1] was at least 80%.
With `COc1ccc(N(C(C)=O)c2cc(F)nc(F)c2)nc1C(=O)NC1CCC1(C)C` (stereo not drawn) [Compound P-192, 6-[acetyl-(2,6-difluoro-4-pyridyl)amino]-N-(2,2-dimethylcyclobutyl)-3-methoxy-pyridine-2-carboxamide], the pest or weed control at 200 ppm in assay [5] and in assay [1] was at least 80% throughout.
With `COc1ccc(Nc2ccc(Cl)c(F)c2)nc1C(=O)NCC(C)(C)C` [Compound P-144, 6-(4-chloro-3-fluoro-anilino)-N-(2,2-dimethylpropyl)-3-methoxy-pyridine-2-carboxamide], the inhibition at 20 ppm in assay [3], in assay [4] and in assay [2] was at least 80% each time. The pest or weed control at 200 ppm in assay [1] is at least 80%.
With `COc1ccc(Nc2cc(F)nc(F)c2)nc1C(=O)NCc1nn(C)c2ncccc12` [Compound P-51, 6-[(2,6-difluoro-4-pyridyl)amino]-3-methoxy-N-[(1-methylpyrazolo[3,4-b]pyridin-3-yl)methyl]pyridine-2-carboxamide], in assay [5], the pest or weed control at 200 ppm was at least 80%.
As for `COc1ccc(Nc2cc(F)cc(F)c2)nc1C(=O)NC(C)C1CCOCC1` (stereo not drawn) [Compound P-61, 6-(3,5-difluoroanilino)-3-methoxy-N-(1-tetrahydropyran-4-ylethyl)pyridine-2-carboxamide], the pest or weed control at 200 ppm in assay [5] and in assay [1] was at least 80% each time. Also, the inhibition at 20 ppm in assay [2] was at least 80%.
As to `COc1ccc(Nc2cc(F)cc(F)c2)nc1C(=O)NC(C)c1ncc(C)o1` (stereo not drawn) [Compound P-71, 6-(3,5-difluoroanilino)-3-methoxy-N-[1-(5-methyloxazol-2-yl)ethyl]pyridine-2-carboxamide], the inhibition at 20 ppm in assay [3] and in assay [2] was at least 80% in each case. Also, in assay [1], the pest or weed control at 200 ppm is at least 80%.
For the compound `COc1ccc(Nc2cnsc2)nc1C(=O)NC1CCC12CCCC2` (stereo not drawn) [Compound P-33, 6-(isothiazol-4-ylamino)-3-methoxy-N-spiro[3.4]octan-3-yl-pyridine-2-carboxamide], the inhibition at 20 ppm in assay [3], in assay [4] and in assay [2] was at least 80% in each case. Moreover, the pest or weed control at 200 ppm in assay [1] is at least 80%.
In the case of `COc1ccc(Nc2cc(F)nc(F)c2)nc1C(=O)NCC1(C)CCOC1` (stereo not drawn) [Compound P-53, 6-[(2,6-difluoro-4-pyridyl)amino]-3-methoxy-N-[(3-methyltetrahydrofuran-3-yl)methyl]pyridine-2-carboxamide], in assay [5], the pest or weed control at 200 ppm is at least 80%.
Turning to `COc1ccc(Nc2ccc3c(c2)OCO3)nc1C(=O)NC(C)(C)C` [Compound P-159, 6-(1,3-benzodioxo1-5-ylamino)-N-tert-butyl-3-methoxy-pyridine-2-carboxamide], the pest or weed control at 200 ppm in assay [1] is at least 80%.
For `COc1ccc(Nc2cc(F)nc(F)c2)nc1C(=O)NC1(C#N)CCC1` [Compound P-126, N-(1-cyanocyclobutyl)-6-[(2,6-difluoro-4-pyridyl)amino]-3-methoxy-pyridine-2-carboxamide], the pest or weed control at 200 ppm in assay [1] is at least 80%.
Consider `COc1ccc(Nc2cc(F)cc(F)c2)nc1C(=O)NC1(C#N)CCC1` [Compound P-129, N-(1-cyanocyclobutyl)-6-(3,5-difluoroanilino)-3-methoxy-pyridine-2-carboxamide], for which the inhibition at 20 ppm in assay [3] and in assay [2] was at least 80% each time. For the same compound, in assay [1], the pest or weed control at 200 ppm was at least 80%.
As for `COc1ccc(Nc2cncnc2)nc1C(=O)NC(C)(C)C` [Compound P-166, N-tert-butyl-3-methoxy-6-(pyrimidin-5-ylamino)pyridine-2-carboxamide], in assay [5], the pest or weed control at 200 ppm is at least 80%.
With `COc1ccc(Nc2ccc(C#N)c(F)c2)nc1C(=O)NC(C)(C)C` [Compound P-164, N-tert-butyl-6-(4-cyano-3-fluoro-anilino)-3-methoxy-pyridine-2-carboxamide], the pest or weed control at 200 ppm in assay [5] and in assay [1] was at least 80% in each case.
For `COc1ccc(Nc2cc(F)nc(F)c2)nc1C(=O)NCC(C)c1ccccc1` (stereo not drawn) [Compound P-32, 6-[(2,6-difluoro-4-pyridyl)amino]-3-methoxy-N-(2-phenylpropyl)pyridine-2-carboxamide], in assay [3], the inhibition at 20 ppm was at least 80%. For the same compound, in assay [1], the pest or weed control at 200 ppm was at least 80%.
On to `COc1ccc(Nc2cc(F)cc(F)c2)nc1C(=O)NC1CC2(COC2)C1` [Compound P-64, 6-(3,5-difluoroanilino)-3-methoxy-N-(2-oxaspiro[3.3]heptan-6-yl)pyridine-2-carboxamide], for which, in assay [5], the pest or weed control at 200 ppm was at least 80%.
Regarding `COc1ccc(Nc2cncc(F)c2)nc1C(=O)NC(C)(C)C` [Compound P-103, N-tert-butyl-6-[(5-fluoro-3-pyridyl)amino]-3-methoxy-pyridine-2-carboxamide], the pest or weed control at 200 ppm in assay [5] and in assay [1] was at least 80% in each case.
